EC50, IC50 and outcome data for 50 compounds are collected here from PubChem BioAssay AID179 (DTP/NCI, 2004).

The assay concerns CEM cells HIV-1 protection, formazan growth assay. Put plainly: NCI AIDS Antiviral Assay. As to conditions: for IC50: measured here: growth of uninfected CEM cells. In short, it runs like this:
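Steps: treat uninfected and HIV-1-infected human CEM cells at five drug levels; quantify growth by soluble formazan; retest any compound reaching 50% protection; classify actives from the retest.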

Values joined by “and” are separate entries in the source; they are usually repeats but may differ in a detail not shown here. Identical values can stand only once. Active and inactive are the calls of the source.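 Rule for the calls: active = compounds giving half or more protection of infected cells from virus-caused growth loss, again on retest; inactive = the rest.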

For `CC1CCCN1c1ccnc2cc(Cl)ccc12` (stereo unspecified), the EC50 was over 1000 µM and the IC50 stood at 288 µM. The like results for `CCCCNC(=S)Nc1nc(C(=O)NNC(=S)NC2CCCCC2)cs1` were, in that order, over 200 µM and 170 µM. Regarding `CC(=O)OCC1(C)C(OC(C)=O)CCC2(C)C(CC(OC(C)=O)C3=CCOC3=O)C(O)(CO)CCC12` (stereo unspecified), the outcome was inactive.

`CCSc1nc(N)c2c(-c3ccc(OC)c(OC)c3)c3c(nc2n1)CCCC3`: the EC50 is over 200 µM and the IC50 is over 200 µM. Turning to `O=C(CCCn1cnc([N+](=O)[O-])n1)NCCCn1ccnc1[N+](=O)[O-]`, the EC50 is over 200 µM and the IC50 was over 200 µM. Consider `NC(=O)C1CC2(C1)CC(C(N)=O)C2` (stereo unspecified), for which the EC50 is over 245 µM and the IC50 is over 245 µM. Take `c1ccc2nn(C3CCCCO3)nc2c1` (stereo unspecified): the EC50 was over 200 µM and the IC50 is over 200 µM. Take `Cc1ccccc1SSCCN`: the outcome was inactive. Consider `CCOC(=O)C(=O)/C=C(\C)Nc1c(NC2OCC(OC(C)=O)C(OC(C)=O)C2OC(C)=O)nc(SC)[nH]c1=O` (stereo unspecified), for which the EC50 was over 87.1 µM and the IC50 was over 87.1 µM. Take `O=C1C(c2ccccc2)=C(c2ccccc2)C(c2ccccc2)/C1=C1\C(=O)C(c2ccccc2)=C(c2ccccc2)C1c1ccccc1` (stereo unspecified): the result was inactive. On to `CCc1ccccc1NC(=O)/C(CC(=O)c1c(C)n([O-])c2ccccc2[n+]1=O)=N\NS(=O)(=O)c1ccc(C)cc1`, for which the EC50 was over 23.4 µM and the IC50 stood at 13.5 µM.

As for `COc1ccc(/C=c2\sc3n(c2=O)C(N)=C(C#N)C(c2ccc(OC)cc2)C=3c2nc3ccccc3[nH]2)cc1` (stereo unspecified), the EC50 is over 7.08 µM and the IC50 was over 7.08 µM.

On to `CC(=O)C(=Cc1ccc(Cl)cc1)C(C)=O`, for which the EC50 was over 427 µM and the IC50 amounted to 19.5 µM. Consider `Cc1ccc(N2CCC3(CC2)OCCO3)cc1`, for which the outcome was inactive. Take `Cc1c(O)c(OC2OC(CO)C(O)C(O)C2O)cc2c1C=C[C@@H]1[C@@]2(C)C(=O)C[C@]2(C)[C@@H]([C@@](C)(O)C(=O)CCC(C)(C)O)[C@H](O)C[C@@]12C` (stereo partly specified): the EC50 is over 200 µM and the IC50 stood at 93.3 µM. The like results for `CC1(C)OC(=O)C(=Cc2ccccc2Cl)C(=O)O1` were, in that order, over 490 µM and 2.45 µM. The like results for `COc1cc2c(cc1OC)/C(=C/c1ccc(N(C)C)cc1)C=C2` were, in that order, over 17 µM and over 17 µM. The like results for `CC(=O)OC1CN(OCC2OC(OC(C)=O)C(OC(C)=O)C(OC(C)=O)C2OC(C)=O)CC(OC(C)=O)C1OC(C)=O` (stereo unspecified) were, in that order, over 200 µM and over 200 µM. Regarding `COc1ccccc1NC(=O)CC(=O)n1nc(-c2ccccc2)c(N=Nc2ccccc2[N+](=O)[O-])c1-c1ccccc1`, the EC50 was over 33.9 µM and the IC50 was over 33.9 µM.

Turning to `CC1(C)[C@H](CO)C(CO)[C@@H]1n1cnc2c(N)ncnc21` (stereo partly specified), the EC50 was over 912 µM and the IC50 was over 912 µM.

`COc1ccc2c(c1)CCc1c(-c3noc4c3CCc3cc(OC)ccc3-4)noc1-2`: the EC50 is over 234 µM and the IC50 is over 234 µM. Turning to `c1ccc(CSC(SCc2ccccc2)(c2ccccc2)c2ccccc2)cc1`, the EC50 was over 200 µM; the IC50 is 102 µM and > 100 µM. With `N=C(N)Cc1ccc(NC(=O)c2ccc(C(=O)Nc3ccc(CC(=N)N)cc3)cc2)cc1`, the EC50 is over 70.8 µM and the IC50 was 22.4 µM. The like results for `O=C1OC(OC/C(Br)=C(\Br)COC2OC(=O)C(Cl)=C2Cl)C(Cl)=C1Cl` (stereo unspecified) were, in that order, over 200 µM and 3.09 µM. The like results for `COC(=O)C(=O)C(C(=O)C(=O)Nc1cc(Cl)c(Cl)cc1Cl)c1nc2ccc([N+](=O)[O-])cc2[nH]c1=O` (stereo unspecified) were, in that order, over 457 µM and 95.5 µM. The like results for `O=C1c2ccccc2-c2c1c1ccccc1c(=O)n2-c1ccccc1` were, in that order, over 30.9 µM and over 30.9 µM. As for `CCN1C[C@]2(C)CC[C@H](O)C34C1C(C[C@@H]32)[C@@]1(O)CC[C@H]2C[C@@H]4[C@@H]1[C@H]2O`, the outcome was inactive.

For `N[C@@H](CSSCCO)C(=O)O`, the EC50 was over 200 µM and the IC50 was over 200 µM.

With `N#C/C(=C\c1ccc([N+](=O)[O-])cc1)C(=O)c1ccccc1`, the EC50 was over 45.7 µM and the IC50 was 24.5 µM.

Take `CC(CC(=O)N(C)[C@H](C[C@@H](C)C(Cl)(Cl)Cl)c1nccs1)C(Cl)Cl` (stereo partly specified): the result was inactive. The same measure, in the same setting: the value for `CC(=O)O[C@H]1CC[C@@]2(C)C(CC[C@@H]3C2C(Br)C(=O)[C@]2(C)C4C(CC32)OC2(OCC(C)CC2Br)C4C)C1` (stereo partly specified) was “inactive”. With `CC(=O)Nc1ccc(-c2nnc(SCC(=O)Nc3ccccc3[N+](=O)[O-])o2)cc1`, the EC50 is over 24 µM and the IC50 was over 24 µM. Turning to `C(/C=C/Nc1ccc(Oc2ccccc2)cc1)=Nc1ccc(Oc2ccccc2)cc1`, the EC50 was over 200 µM and the IC50 turned out to be 9.33 µM. With `COC(=O)C1=CCC(n2cc(C)c(=O)[nH]c2=O)CC1` (stereo unspecified), the EC50 is over 257 µM and the IC50 was over 257 µM. With `CCCCCCCCCCCC1CN=C(CCCCC2=NCC(CCCCCCCCCCC)N2)N1` (stereo unspecified), the EC50 is over 7.08 µM and the IC50 is over 7.08 µM. For `CC(C)C(Nc1c2ccccc2[n+](C)c2ccccc12)C(=O)O` (stereo unspecified), the result was inactive. Take `Cc1nc2sccn2c1C(=O)NN`: the EC50 was over 1260 µM and the IC50 worked out at 912 µM. The like results for `c1ccc2c(c1)SC1Sc3ccccc3[S+]21` (stereo unspecified) were, in that order, over 200 µM and 11.5 µM. In the case of `COC12CCCN1c1ccn(Cc3ccccc3)c(=O)c1C2=O` (stereo unspecified), the result was inactive.

As for `CC(C)=CCC[C@]1(C)C=Cc2c(O)c3c(c(CC=C(C)C)c2O1)O[C@]12C(=C[C@@H]4CC1C(C)(C)O[C@@]2(C/C=C(/C)C(=O)O)C4=O)C3=O`, the EC50 is over 0.2 µM and the IC50 turned out to be 0.0631 µM.

Take `NS(=O)(=O)c1ccc(NNc2c3ccccc3nc3c(C(=O)Nc4ccc(S(N)(=O)=O)cc4)cccc23)cc1`: the EC50 is over 200 µM and the concentration for half-maximal inhibition (IC50) amounted to 10.5 µM. For `O=C(c1ccco1)N(C(=O)N1CCC(c2ccccc2)CC1)c1ccccc1`, the EC50 was over 200 µM and the IC50 came to 29.5 µM.

With `COC(=O)[C@@H](NS(=O)(=O)CC12CCC(CC1)C2(C)C)C(C)(C)C`, the EC50 was over 200 µM and the IC50 was over 200 µM. `NN1C(=O)c2cccc3cccc(c23)C1=O`: the EC50 was over 100 µM and the IC50 stood at 49 µM.

As to `Nc1ccc2nc(Nc3ccc(Cl)c(Cl)c3)cnc2c1`, the EC50 was over 23.4 µM and the IC50 is over 23.4 µM. For `Nc1ccccc1-c1nc2c(ccc3ccccc32)[nH]1`, the EC50 was over 72.4 µM and the IC50 was found to be 57.5 µM. The like results for `O=C1/C(=C/c2ccc(O)cc2)CCc2ccccc21` were, in that order, over 200 µM and 20.9 µM. The like results for `CCCO/N=C\c1c2c(O)c3c(O)c(C)c4c(c3c1O)C(=O)C(C)(O/C=C\C(OC)C(C)C(OC(C)=O)C(C)C(O)C(C)C(O)C(C)/C=C\C=C(\C)C(=O)N2)O4` (stereo unspecified) were, in that order, over 100 µM and 5.25 µM. The like results for `COC1=CC(=O)C2C(C1=O)[C@@H]1c3ccccc3OC(C)(C)[C@H]21` (stereo partly specified) were, in that order, over 166 µM and 16.2 µM.

Take `Cc1cc2n[n+]3[n-]cc(-c4ccccc4)n3c2cc1[N+](=O)[O-]`: the EC50 is over 200 µM and the IC50 is over 200 µM.

A word on the EC50: it is the concentration needed to bring the measured effect to its halfway point. The IC50 is the concentration needed to halve the response being measured.
